Measured values from PubChem BioAssay (NCI).
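Interpolation was linear, between the two tested concentrations surrounding the appropriate level; five concentrations were tested over 48 hours in 96-well plates. Here, GI50 denotes the concentration required for 50% inhibition of growth. TGI marks complete inhibition of growth.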 Where a SMILES comes first, the peptide text is derived from it.

Columns and labels:
Assay in all cases: inhibition of tumour cell growth, NCI panel, 48 h
[1] = tested on: SK-MEL-28 melanoma
[2] = tested on: SR leukemia
[3] = tested on: OVCAR-3 ovarian
[4] = tested on: OVCAR-8 ovarian
[5] = tested on: SK-MEL-5 melanoma
[6] = tested on: SNB-19 CNS
[7] = tested on: MDA-MB-435
[8] = tested on: PC-3 prostate
[9] = tested on: NCI-H23 lung
[10] = tested on: HOP-62 NSCLC

Row | Structure (SMILES) | TGI [1] [µM] | TGI [2] [µM] | TGI [3] [µM] | TGI [4] [µM] | TGI [5] [µM] | TGI [6] [µM] | TGI [7] [µM] | TGI [8] [µM] | TGI [9] [µM] | TGI [10] [µM] | GI50 [2] [µM]
1 | CC1C(c2ccc(F)cc2)c2cc3c(cc2OC1N1CCCC1)OCO3 (configuration not stated) | > 100 | > 100 | > 100 | > 100 | > 100 | > 100 | > 100 | > 100 | > 100 | > 100 | 
2 | CNC(=S)/C(=N\Nc1nc[nH]c1C(N)=O)C(N)=S | > 100 | 0.468 | > 50.2 | > 57.5 | 81.3 | > 100 | > 100 | > 100 | > 94.7 | > 100 | 
3 | CCN1CC2=C(N=c3s/c(=C\c4ccc(Cl)cc4)c(=O)n3C2c2ccc(Cl)cc2)/C(=C/c2ccc(Cl)cc2)C1 (configuration not stated) | > 100 |  | > 100 | > 100 | > 100 | > 100 | > 100 | > 100 | > 100 | 90.4 | 
4 | CCN(CC)c1ccc(/C=C(\C#N)c2nc(N)nc(N3N=C(C)CC3(C)C)n2)cc1 | > 100 | > 100 | 37.9 | 24.4 | > 61 | 37.1 | > 100 | > 100 | > 80.9 | 23.6 | 
5 | O=c1c(O)c(-c2ccc(O)cc2O)oc2cc(O)cc(O)c12 | > 100 |  | > 100 | > 100 | > 100 | > 100 | > 100 | > 100 | > 100 | > 100 | 
6 | O=c1[nH]c2ccc(C(F)(F)F)cc2nc1-c1ccccc1 | > 100 | > 100 | > 100 | > 100 | > 100 | > 100 | > 100 | > 100 | > 100 | > 100 | 
7 | CSc1ccc2c(cc1=O)[C@@H](NC(C)=O)CCc1cc(O)c(O)c(O)c1-2 | > 100 | > 100 | 34.2 | 42.3 | > 100 | 78.9 | 29.9 | > 100 | 44.9 | 32.3 | 
8 | O=c1c2ccccc2nc2n1NC(c1c(Cl)cccc1Cl)N2c1cccc(Cl)c1 (configuration not stated) | > 100 | > 100 | 54.2 | 12 | 65.5 | 18 | > 100 | 28.1 | 56.7 | > 100 | 
9 | O=C(O)CC(C(=O)O)c1ccccc1[N+](=O)[O-] (configuration not stated) | > 100 |  | > 100 | > 100 | > 100 | > 100 | > 100 | > 100 | > 100 | > 100 | 
10 | CCN(CC)C(=S)SS(=O)(=O)c1ccccc1C(=O)O | > 100 | > 100 | > 100 | > 100 | > 100 | > 100 | > 100 | > 100 | > 100 | > 100 | 
11 | COC(CN(C)C(=O)C(C)NC(=O)c1ccccc1)OC (configuration not stated) |  | > 100 |  | > 100 | > 100 |  | > 100 | > 100 | > 100 |  | 
12 | Cc1[nH]c2ncn3nc(C(Cl)(Cl)Cl)nc3c2c1Cc1ccccc1 | > 100 |  | > 100 | > 100 | > 100 | > 100 | > 100 | > 100 | > 100 | > 100 | 
13 | Cc1ccc(S(=O)ON2CCC(C(=O)O)(c3ccccc3)CC2)cc1 (configuration not stated) | > 100 | > 100 | > 100 | > 100 | > 100 | > 100 | > 100 | > 100 | > 100 | > 100 | > 100
14 | Clc1ccc(-c2nn3c(CCCCCCCCc4nnc5sc(-c6ccc(Cl)cc6)nn45)nnc3s2)cc1 | > 79.7 | > 74.3 | 59 | > 94.8 | 60.3 | > 87.6 | > 88 | 69.7 | > 92.6 | > 83.2 | 
15 | COc1ccc2c(c1)C(N)CC2=O (configuration not stated) | > 100 |  | > 100 | > 100 | > 100 | > 100 | > 100 | 34.8 | > 100 | > 100 | 
16 | CN1CCCN2CCN(C)CCN(CC1)CC2 | > 100 | > 100 | > 100 | > 100 | > 100 | > 100 | > 100 | > 100 | > 100 | > 100 | 
17 | C=C1C(=O)O[C@@H]2[C@H]3O[C@]3(C)CCC=C(C)CC[C@@H]12 | 44.3 |  | 40.7 | 43.9 | 49.1 | 163 |  |  | 52.7 | 102 | 
18 | O=C(c1ccccc1)c1ccc(C(c2c(O)c3ccccc3oc2=O)c2c(O)c3ccccc3oc2=O)cc1 | > 73.3 | 59.3 | > 56.6 | > 75.1 | > 68.5 | 55.8 | > 74.2 | > 74.5 | 49 | > 57.3 | 
19 | CCOC(=O)CN1CCNCCN(CC(=O)OCC)CCNCC1 | > 100 | > 100 | > 100 | > 100 | > 100 | > 100 | > 100 | > 100 |  | > 100 | 
20 | O=C(NN=C1CCN(Cc2ccccc2)CC1)C(O)(c1ccccc1)c1ccccc1 | > 100 | > 100 |  | > 100 | > 100 | > 100 | > 100 |  | > 100 | > 100 | 
21 | CC1NC(=O)CNC(=O)CNC(=O)C(Cc2ccc(O)cc2)NC(=O)C(C(C)C)NC(=O)C(C)NC1=O (configuration not stated) (cyclo(GGAAVY); configuration not given here) | > 100 |  | > 100 | > 100 | > 100 | > 100 |  |  | > 100 | > 100 | 
22 | CCOC(=O)c1c(C)n(Cc2ccccc2)c(=O)c2ccccc2c(=O)c2c(=O)ccc(=O)c1=2 | > 100 | > 100 | > 100 | > 100 | > 100 | > 100 | > 100 | > 100 | > 100 | > 100 | 
23 | CC(=O)OCC1OC(On2ccccc2=S)C(OC(C)=O)C(OC(C)=O)C1OC(C)=O (configuration not stated) | > 100 |  | > 100 | > 100 | > 100 | > 100 | > 100 | > 100 | > 100 | > 100 | 

Row | Structure (SMILES) | TGI [1] [µM] | TGI [2] [µM] | TGI [3] [µM] | TGI [4] [µM] | TGI [5] [µM] | TGI [6] [µM] | TGI [7] [µM] | TGI [8] [µM] | TGI [9] [µM] | TGI [10] [µM] | GI50 [2] [µM]
24 | CCOc1c2ccsc2c(OCC)c2ccsc12 | > 100 | > 100 | 61.1 | > 100 | > 29.5 | > 100 | 3.15 | > 100 | > 78 | > 100 | 
25 | COC(=O)c1ccccc1C1CN=NC12Cc1ccc3ccccc3c1C2=O (configuration not stated) | > 100 | > 100 | > 100 | > 100 | > 100 | > 100 | > 100 | > 100 |  |  | 
26 | C=C[C@@H]1OC(=O)O[C@H]1CO | > 100 | > 100 | > 100 | > 100 | > 100 | > 100 | > 100 | > 100 | > 100 | > 100 | 
27 | O=C(Cn1c(=O)ccn(C2OC(CO)C(O)C2F)c1=O)c1ccc(F)cc1 (configuration not stated) | > 100 |  | > 100 | > 100 | > 100 | > 100 | > 100 | > 100 | > 100 | > 100 | 
28 | CCN(CC)CCn1c(C(C)(C)C)nc2ccccc21 | > 100 | > 100 | > 100 | > 100 |  | > 100 |  | > 100 | > 100 | > 100 | 
29 | COc1ccc2[nH]c(CCNC(=O)c3cc([N+](=O)[O-])cc([N+](=O)[O-])c3)cc2c1 | > 100 | > 100 | > 100 | > 100 | > 100 | > 100 | > 100 | > 100 | > 100 | 60.6 | 
30 | Cc1cc2nc3n[nH]c(N)c3nc2cc1C | > 100 | > 100 |  | > 100 |  | > 100 | > 100 | > 100 | > 100 | > 100 | 
31 | CC1=C2C(O)C(C(C)C(=O)NCC(C)C)CCC2(C)C=CC1=O (configuration not stated) | > 100 |  | > 100 | > 100 | > 100 | > 100 |  |  | > 100 | > 100 | 
32 | CCCCCCCCCOC(=O)c1cnc(Cl)cn1 | 52.7 | > 100 |  | 69.6 | 32.9 | 47.5 | 40.8 | 24 | 33 | 44.9 | 
33 | NC(N)=NCCCC(N=c1c2ccccc2n(O)c2ccccc12)C(=O)O (configuration not stated) | 90.1 |  | > 100 | > 100 | 66.6 | > 100 |  |  | > 100 | > 100 | 
34 | CSC1=N/C(=C\c2ccc(C)cc2)C(=O)N1CN1CCOCC1 |  | > 100 | > 100 | > 100 | > 100 | > 100 | > 100 | > 100 | > 100 | > 100 | 
35 | CN(C)CCCNc1c(O)c2c(c(O)c1Cl)C(=O)C=CC2=O | 2.85 |  | 6.6 | 9.69 | 2.82 | 4.67 | 4.33 | 6.83 | 3.22 | 7.87 | 
36 | CCOC(=O)c1cc2cc(N(C(C)=O)C(C)=O)ccc2s1 | > 100 |  | > 100 | 93.2 | 65 | > 100 | > 100 | 46.2 | > 100 | > 100 | 
37 | CC/C(=N\NC(=O)c1cccnc1)c1ccc2c(c1)OCCO2 | > 100 |  | > 100 | > 100 | > 100 | > 100 | > 100 | > 100 | > 100 | > 100 | 
38 | c1ccc2c(c1)ccc1nc(-c3ccc4c(c3)OCO4)c3c(c12)CCCC3 | > 100 |  | > 100 | > 100 |  | > 100 | 87.7 | > 100 | > 100 | > 100 | 
39 | S=c1[nH]nc(COc2ccc3c(c2)CCCC3)n1/N=C/c1ccc(Cl)cc1 | 33.1 |  | 30.7 | 31.8 | 29.3 | 40 | 39.4 | 31.2 | 35.9 | 32.3 | 
40 | CC(=O)N=C(N=Nc1c(O)[nH]c2ccc(C)cc12)NC(C)=O | > 100 | > 100 |  | > 100 | > 100 | > 100 | > 100 | > 100 | > 100 | > 100 | 
41 | NC(=O)NC(=O)c1cnccn1 | > 100 |  | > 100 |  |  | > 100 | > 100 | > 100 | > 100 | > 100 | 
42 | COc1c(CC=C(C)C)c(O)c(C(CC(C)C)c2c(O)c(C(C)=O)c(O)c3c2OC(C(C)(C)O)C3)c(O)c1C(C)=O (configuration not stated) | > 12.5 | 10.4 | > 12.5 | > 12.5 | 8.24 | > 12.5 | > 12.5 |  | > 12.5 |  | 
43 | CNc1ncnc(Sc2nc(N)nc3nc[nH]c23)c1[N+](=O)[O-] | 22.2 |  | 12 | 18.5 | 13.4 | > 81.2 | 12 | 22 | 13.9 | > 100 | 
44 | Cc1c(N2C(=O)/C(=C/C=C/c3ccccc3)N=C2c2ccccc2)c(=O)n(-c2ccccc2)n1C |  | 47.1 | 46.6 | 77.6 | 30.8 |  | 33.1 | 76.9 | 61.1 | 85.3 | 
45 | CC(=O)/C(C=Nc1c(C)n(C)n(-c2ccccc2)c1=O)=C(/C)O |  | > 100 | > 100 | > 100 | > 100 | > 100 | > 100 | > 100 | > 100 |  | 
46 | Cc1ccc(-c2c(C#N)c(-c3ccc(Cl)cc3)c(C#N)c(=O)n2NS(=O)(=O)c2ccccc2)cc1 | > 100 |  |  | > 100 | > 100 | > 100 | > 100 | > 100 |  | > 100 | 
